Assay results published in PubChem BioAssay AID248 (DTP/NCI, 2004).
“And” between values parts separate entries of the source, which are not always exact repeats. Equal values may be shown once. Inconclusive results and toxic doses are left out. No stated cut-off is given here; in the data, active means T/C of 150% or more; inactive means T/C below 125%.

System: L1210 leukemia ip in BDF1 mice, survival T/C
Test: NCI In Vivo Anticancer Drug Screen. Data for tumor model L1210 Leukemia (intraperitoneal) in B6D2F1 (BDF1) mice
Conditions: endpoint: mean survival time, higher = longer survival
In short: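 Antitumor effect is assessed in tumor-bearing animals. Survival in the compound arm is compared with a vehicle-dosed control arm and expressed as their quotient.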

[1] = dose: 100.0 mg/kg/injection, schedule: Q01DX009 (ip), vehicle: saline
[2] = dose: 100.0 mg/kg/injection, schedule: Q04DX003 (ip), vehicle: saline
[3] = dose: 100.0 mg/kg/injection, schedule: Q01DX001 (ip), vehicle: saline
[4] = dose: 200.0 mg/kg/injection, schedule: Q01DX001 (ip), vehicle: saline
[5] = dose: 400.0 mg/kg/injection, schedule: Q01DX001 (ip), vehicle: saline
[6] = dose: 100.0 mg/kg/injection, schedule: Q01DX009 (ip), vehicle: saline with Tween-80
[7] = dose: 200.0 mg/kg/injection, schedule: Q01DX009 (ip), vehicle: saline with Tween-80
[8] = dose: 100.0 mg/kg/injection, schedule: Q01DX009 (ip), vehicle: Klucel (hydroxypropylcellulose) (HPC)
[9] = dose: 100.0 mg/kg/injection, schedule: Q04DX003 (ip), vehicle: Klucel (hydroxypropylcellulose) (HPC)
[10] = dose: 200.0 mg/kg/injection, schedule: Q01DX009 (ip), vehicle: Klucel (hydroxypropylcellulose) (HPC)
[11] = dose: 200.0 mg/kg/injection, schedule: Q04DX003 (ip), vehicle: Klucel (hydroxypropylcellulose) (HPC)
[12] = dose: 400.0 mg/kg/injection, schedule: Q04DX003 (ip), vehicle: Klucel (hydroxypropylcellulose) (HPC)
[13] = dose: 25.0 mg/kg/injection, schedule: Q01DX009 (ip), vehicle: Klucel (hydroxypropylcellulose) (HPC)
[14] = dose: 50.0 mg/kg/injection, schedule: Q01DX009 (ip), vehicle: Klucel (hydroxypropylcellulose) (HPC)

Measured: T/C

CN(C)C1C2(C)CCC(C2)C1(C)C (stereo not given)
inactive: dose: 5.0 mg/kg/injection, schedule: Q01DX001 (ip), vehicle: carboxymethylcellulose (CMC) 101 % of control | dose: 10.0 mg/kg/injection, schedule: Q01DX001 (ip), vehicle: carboxymethylcellulose (CMC) 98 % of control | dose: 20.0 mg/kg/injection, schedule: Q01DX001 (ip), vehicle: carboxymethylcellulose (CMC) 98 % of control | dose: 40.0 mg/kg/injection, schedule: Q01DX001 (ip), vehicle: carboxymethylcellulose (CMC) 95 % of control

N/C(=N\O)c1c(N)ncn1C1OC(CO)C(O)C1O (stereo not given)
inactive: dose: 100.0 mg/kg/injection, schedule: Q01DX005 (ip), vehicle: saline 97 % of control | dose: 200.0 mg/kg/injection, schedule: Q01DX005 (ip), vehicle: saline 100 % of control

COc1ccc(CC2=NCCc3cc(OC)c(OC)cc32)cc1OC
inactive: dose: 75.0 mg/kg/injection, schedule: Q01DX001 (ip), vehicle: saline 97 % of control | [1] 96 % of control and 90 % of control | [2] 110 % of control and 89 % of control | dose: 150.0 mg/kg/injection, schedule: Q01DX001 (ip), vehicle: saline 100 % of control

C=CCOP(OCC=C)OCC=C
inactive: dose: 25.0 mg/kg/injection, schedule: Q01DX009 (ip), vehicle: saline 103 % of control | dose: 50.0 mg/kg/injection, schedule: Q01DX009 (ip), vehicle: saline 103 % of control | dose: 50.0 mg/kg/injection, schedule: Q04DX003 (ip), vehicle: saline 97 % of control | [1] 87 % of control | [2] 101 % of control

O=C1c2cccc([N+](=O)[O-])c2C(=O)N1CCl
inactive: dose: 100.0 mg/kg/injection, schedule: Q01DX001 (ip), vehicle: steriod suspending solution 97 % of control | dose: 200.0 mg/kg/injection, schedule: Q01DX001 (ip), vehicle: steriod suspending solution 105 % of control

O=C1c2cscc2Cc2sccc21
inactive: dose: 100.0 mg/kg/injection, schedule: Q01DX001 (ip), vehicle: saline with Tween-80 95 % of control | dose: 200.0 mg/kg/injection, schedule: Q01DX001 (ip), vehicle: saline with Tween-80 92 % of control | dose: 400.0 mg/kg/injection, schedule: Q01DX001 (ip), vehicle: saline with Tween-80 88 % of control

O=C(O)c1cc(O)c2c(c1)C(C1c3cc(C(=O)O)cc(O)c3C(=O)c3c(OC4OC(CO)C(O)C(O)C4O)cccc31)c1cccc(OC3OC(CO)C(O)C(O)C3O)c1C2=O (stereo not given)
inactive: [3] 98 % of control and 101 % of control | [4] 97 % of control | [5] 103 % of control and 106 % of control

O=C(OC1CCCC1c1ccccc1)c1cccc([N+](=O)[O-])c1 (stereo not given)
inactive: dose: 50.0 mg/kg/injection, schedule: Q01DX009 (ip), vehicle: saline with Tween-80 90 % of control | [6] 90 % of control | [7] 87 % of control

O=C(Nc1cccc(C2=NCCN2)c1)c1cc(C(=O)Nc2cccc(C3=NCCN3)c2)cc(C(=O)Nc2cccc(C3=NCCN3)c2)c1
inactive: dose: 1.9 mg/kg/injection, schedule: Q01DX Z (ip), vehicle: carboxymethylcellulose (CMC) 97 % of control | dose: 2.8 mg/kg/injection, schedule: Q01DX Z (ip), vehicle: carboxymethylcellulose (CMC) 101 % of control | dose: 4.3 mg/kg/injection, schedule: Q01DX Z (ip), vehicle: carboxymethylcellulose (CMC) 97 % of control | dose: 6.5 mg/kg/injection, schedule: Q01DX Z (ip), vehicle: carboxymethylcellulose (CMC) 97 % of control and 103 % of control | dose: 9.7 mg/kg/injection, schedule: Q01DX Z (ip), vehicle: carboxymethylcellulose (CMC) 100 % of control | dose: 14.6 mg/kg/injection, schedule: Q01DX Z (ip), vehicle: carboxymethylcellulose (CMC) 96 % of control | dose: 22.0 mg/kg/injection, schedule: Q01DX Z (ip), vehicle: carboxymethylcellulose (CMC) 97 % of control | dose: 22.0 mg/kg/injection, schedule: Q01DX Z (ip), vehicle: saline 98 % of control | dose: 33.0 mg/kg/injection, schedule: Q01DX Z (ip), vehicle: saline 100 % of control

Cc1cc(N(CCCOS(C)(=O)=O)CCCOS(C)(=O)=O)ccc1C=Nc1cccc(Br)c1
inactive: [6] 96 % of control | [7] 94 % of control | dose: 400.0 mg/kg/injection, schedule: Q01DX009 (ip), vehicle: saline with Tween-80 91 % of control

C(=N\C(/N=C/c1ccccc1)c1ccccc1)/c1ccccc1
inactive: [8] 96 % of control | [9] 92 % of control | [10] 94 % of control | [11] 94 % of control | dose: 400.0 mg/kg/injection, schedule: Q01DX009 (ip), vehicle: Klucel (hydroxypropylcellulose) (HPC) 92 % of control | [12] 92 % of control

CC(C)(C)CC(C)(C)c1ccc(OCCOC(=O)c2ccccc2C(=O)O)cc1
inactive: [13] 97 % of control | [14] 105 % of control | [8] 94 % of control

O=S(=O)(c1ccccc1)C(Br)c1ccc(F)cc1 (stereo not given)
inactive: dose: 100.0 mg/kg/injection, schedule: Q04DX002 (ip), vehicle: Klucel (hydroxypropylcellulose) (HPC) 97 % of control | dose: 200.0 mg/kg/injection, schedule: Q04DX002 (ip), vehicle: Klucel (hydroxypropylcellulose) (HPC) 105 % of control | dose: 400.0 mg/kg/injection, schedule: Q04DX002 (ip), vehicle: Klucel (hydroxypropylcellulose) (HPC) 101 % of control

CN(CC#N)/N=N/c1nc[nH]c1C(N)=O
inactive: dose: 50.0 mg/kg/injection, schedule: Q01DX Z (ip), vehicle: carboxymethylcellulose (CMC) 118 % of control | dose: 75.0 mg/kg/injection, schedule: Q01DX Z (ip), vehicle: carboxymethylcellulose (CMC) 107 % of control

C1=Nc2c(ncnc2SCc2ccccc2)NN1
inactive: dose: 5.0 mg/kg/injection, schedule: Q01DX001 (ip), vehicle: other 100 % of control | dose: 10.0 mg/kg/injection, schedule: Q01DX001 (ip), vehicle: other 106 % of control | dose: 20.0 mg/kg/injection, schedule: Q01DX001 (ip), vehicle: other 100 % of control | dose: 40.0 mg/kg/injection, schedule: Q01DX001 (ip), vehicle: other 100 % of control | dose: 50.0 mg/kg/injection, schedule: Q01DX001 (ip), vehicle: other 113 % of control | dose: 80.0 mg/kg/injection, schedule: Q01DX001 (ip), vehicle: other 93 % of control | dose: 100.0 mg/kg/injection, schedule: Q01DX001 (ip), vehicle: other 88 % of control

CC(C)CNC(=O)CCCc1ccc(N(CCCl)CCCl)cc1
inactive: dose: 4.0 mg/kg/injection, schedule: Q12HX018 (ip), vehicle: other 110 % of control | dose: 6.0 mg/kg/injection, schedule: Q12HX018 (ip), vehicle: other 95 % of control | dose: 8.0 mg/kg/injection, schedule: Q12HX018 (ip), vehicle: other 112 % of control

COc1c([N+](=O)[O-])cc(C)nc1Cl
inactive: [3] 95 % of control | [4] 101 % of control | [5] 101 % of control

Clc1ccc(Cl)c(-c2csc(-c3ccncc3)n2)c1
inactive: [13] 116 % of control | [14] 100 % of control | [8] 97 % of control and 103 % of control

O=C(CCl)NCCCCCNC(=O)CCl
inactive: [8] 104 % of control | [10] 105 % of control

Cc1cc2nc3c(N)ccc(N)c3nc2cc1N
inactive: dose: 100.0 mg/kg/injection, schedule: Q04DX002 (ip), vehicle: saline with Tween-80 97 % of control | dose: 200.0 mg/kg/injection, schedule: Q04DX002 (ip), vehicle: saline with Tween-80 97 % of control | dose: 400.0 mg/kg/injection, schedule: Q04DX002 (ip), vehicle: saline with Tween-80 105 % of control

NC(=O)NC(Cc1ccccc1)(C(=O)O)c1ccccc1 (stereo not given)
inactive: [9] 103 % of control | [11] 98 % of control | [12] 103 % of control

CC1(C)OCC(C2OC(N)C(O)C2O)O1 (stereo not given)
inactive: dose: 100.0 mg/kg/injection, schedule: Q04DX002 (ip), vehicle: saline 94 % of control | dose: 200.0 mg/kg/injection, schedule: Q04DX002 (ip), vehicle: saline 97 % of control | dose: 400.0 mg/kg/injection, schedule: Q04DX002 (ip), vehicle: saline 102 % of control

CCCCCCCCCCCCCCCCCc1c(Cl)c(Cl)c(Cl)c(Cl)c1Cl
inactive: dose: 100.0 mg/kg/injection, schedule: Q01DX001 (ip), vehicle: Klucel (hydroxypropylcellulose) (HPC) 90 % of control
